Data as given in patent US20060189574A1, “Method of treating high plasma cholesterol levels” (priority 2000, published 2006).

Experiments:
[1] = system: plasma cholesterol; test: Effect of Orlistat/XENICAL and cholestyramine/[…] on plasma cholesterol in volunteers; assay type: in vivo, human; details: for plasma cholesterol, mean: mean of volunteers
Source text: The effect of a combination of Orlistat/XENICAL® and a bile acid sequestrant cholestyramine/[…]® on plasma cholesterol was examined.
Three hyper-cholesterolemic volunteers, one female, 2 males, […] cholesterol level: They continued on a combination of […], […]

[2] = system: animal models; details: cited from earlier work
[3] = system: fat absorption; details: humans; cited from earlier work

CCCCCCCCCCC[C@@H](C[C@@H]1OC(=O)[C@H]1CCCCCC)OC(=O)[C@H](CC(C)C)NC=O [Xenical, Orlistat]
plasma cholesterol course ([1]; all three individuals, end of 6 weeks treatment with Xenical b.i.d.): reasonably stable | plasma cholesterol, mean ([1]; week 4, Xenical b.i.d.): 252 mg/100 ml | plasma cholesterol, mean ([1]; week 5, Xenical b.i.d.): 225 mg/100 ml | plasma cholesterol, mean ([1]; week 6, Xenical b.i.d.): 247 mg/100 ml | plasma cholesterol, mean ([1]; week 11, Xenical b.i.d. after cessation of Quantalan): 253 mg/100 ml | plasma cholesterol, mean ([1]; week 13, Xenical b.i.d. after cessation of Quantalan): 263 mg/100 ml | plasma cholesterol ([1]; volunteer 1, week 4, Xenical b.i.d.): 252 mg/100 ml | plasma cholesterol ([1]; volunteer 1, week 5, Xenical b.i.d.): 239 mg/100 ml | plasma cholesterol ([1]; volunteer 1, week 6, Xenical b.i.d.): 233 mg/100 ml | plasma cholesterol ([1]; volunteer 1, week 11, Xenical b.i.d. after cessation of Quantalan): 247 mg/100 ml | plasma cholesterol ([1]; volunteer 2, week 4, Xenical b.i.d.): 236 mg/100 ml | plasma cholesterol ([1]; volunteer 2, week 5, Xenical b.i.d.): 212 mg/100 ml | plasma cholesterol ([1]; volunteer 2, week 6, Xenical b.i.d.): 232 mg/100 ml | plasma cholesterol ([1]; volunteer 2, week 11, Xenical b.i.d. after cessation of Quantalan): 230 mg/100 ml | plasma cholesterol ([1]; volunteer 2, week 13, Xenical b.i.d. after cessation of Quantalan): 226 mg/100 ml | plasma cholesterol ([1]; volunteer 3, week 4, Xenical b.i.d.): 269 mg/100 ml | plasma cholesterol ([1]; volunteer 3, week 6, Xenical b.i.d.): 277 mg/100 ml | plasma cholesterol ([1]; volunteer 3, week 11, Xenical b.i.d. after cessation of Quantalan): 282 mg/100 ml | plasma cholesterol ([1]; volunteer 3, week 13, Xenical b.i.d. after cessation of Quantalan): 300 mg/100 ml | body weight [2]: reduce body weight | fat absorption [2]: inhibit fat absorption | fat absorption [3]: potent inhibition of fat absorption
